Test results: paper PMC12811997 (Chemmedchem, 2025)
Converted amounts (≈) assume the structure as drawn. Like-named read-outs stand apart in the source and are kept apart here.

Columns and labels:
[1] = target: T1, SARS‐CoV‐2 RdRp complex (nsp12, nsp7, nsp8) (Severe acute respiratory syndrome coronavirus 2, UniProt P0DTD1); set-up: method as in PMID 39140451; conditions: at 10 μM concentration of screened compound; ref [10]; cited from earlier work
[2] = target: T1, SARS‐CoV‐2 RdRp complex (nsp12, nsp7, nsp8); assay: biochemical; format: biochemical; conditions: AUC with compound / AUC of noninhibited reaction; for remaining activity at 10 µM: read-out: RA ± SD (residual activity of RdRp), at 10 μM concentration of screened compounds
[3] = tested on: SARS‐CoV‐2; assay: microbe, parasite or virus in culture; format: cell-based
[4] = Chemical stability in aqueous solution; format: physicochemical
[5] = in vitro; conditions: human
Method: (§1) Cytotoxicity was evaluated by incubating the same two‐fold serial dilutions of each compound with Calu‐3 cells as above but without the virus. Following 3 days of incubation at 37 °C in 5% CO2, the cell viability was determined by the addition of XTT solution as above. The compound cytotoxic concentrations resulting in a 50% reduction of absorbance (CC50) were calculated from plots of the percentage of absorbance versus log10 of drug concentration as above.

[6] = Kinetic solubility; conditions: for solubility kinetic: kinetic from dmso stock
[7] = tested on: Calu‐3 cells; conditions: read-out: CC50 ± SE, concentration required to reduce cell viability by 50%
Method: as §1

[8] = Severe acute respiratory syndrome coronavirus 2, Calu‐3 cells infected with SARS‐CoV‐2, concentration required to reduce viral cytopathic effect by 50%, read-out: EC50

Compound	RA (residual activity of RdRp) [1]	remaining activity at 10 µM [2]	EC50 [3, 8]	CC50 at 3 days [5]	solubility kinetic [6]	further results
O=C(Nc1cc(Cl)cc(Cl)c1)Nc1cccc(C(F)(F)F)c1 [Compound 1, 1‐(3,5‐dichlorophenyl)‐3‐(3‐(trifluoromethyl)phenyl)urea]	45%					
FC(F)(F)c1ccc2nc(-c3nc4cc(Cl)c(Cl)cc4[nH]3)[nH]c2c1 [Compound 2]	43 ± 6%					
O=C(Nc1cccc(C(F)(F)F)c1)Nc1nc2cc(Cl)c(Cl)cc2[nH]1 [Compound 3]	49 ± 6%					
O=C(Nc1cc(Cl)cc(Cl)c1)Nc1nc2ccc(C(F)(F)F)cc2[nH]1 [Compound 4]	29 ± 2%					
O=C(Nc1cc(Cl)cc(Cl)c1)Nc1ccc(CN2CCOC(=O)C2)c(C(F)(F)F)c1 [Compound 64, 1‐(3,5‐Dichlorophenyl)‐3‐(4‐((2‐Oxomorpholino)Methyl)‐3‐(Trifluoromethyl)Phenyl)Urea]		39 ± 12%	> 38 µM	38 ± 8.2 µM	21 ± 2 µM (≈ 9.71 µg/mL)	chemical stability [4]: chemically unstable and underwent rapid hydrolysis in aqueous solution; increase in kinetic solubility compared with compound 39 ([6]; relative to compound 39): 5 fold
Cl.O=C(Nc1cc(Cl)cc(Cl)c1)Nc1ccc(CN2CCS(=O)(=O)CC2)c(C(F)(F)F)c1 [Compound 68, 1‐(3,5‐Dichlorophenyl)‐3‐(4‐((1,1‐Dioxidothiomorpholino)Methyl)‐3‐(Trifluoromethyl)Phenyl)Urea Hydrochloride]		37 ± 5%	> 5.9 µM	5.9 ± 0.51 µM	2.57 ± 0.04 µM	
COC(=O)C1CN(Cc2ccc(NC(=O)Nc3cc(Cl)cc(Cl)c3)cc2C(F)(F)F)CCO1.Cl (stereo not shown) [Compound 69, Methyl 4‐(4‐(3‐(3,5‐Dichlorophenyl)Ureido)‐2‐(Trifluoromethyl)Benzyl)Morpholine‐2‐Carboxylate Hydrochloride]		42 ± 4%	> 34 µM	34 ± 5.6 µM	< 2 µM	
Cl.O=C1CN(Cc2ccc(NC(=O)Nc3cc(Cl)cc(Cl)c3)cc2C(F)(F)F)CCN1 [Compound 70, 1‐(3,5‐Dichlorophenyl)‐3‐(4‐((3‐Oxopiperazin‐1‐Yl)Methyl)‐3‐(Trifluoromethyl)Phenyl)Urea Hydrochloride]		63 ± 7%	> 9.5 µM	9.5 ± 0.28 µM	11.2 ± 0.07 µM	
O=C(Nc1cc(Cl)cc(Cl)c1)Nc1ccc(CN2CCOC(C(=O)[O-])C2)c(C(F)(F)F)c1.[Li+] (stereo not shown) [Compound 71, Lithium 4‐(4‐(3‐(3,5‐Dichlorophenyl)Ureido)‐2‐(Trifluoromethyl)Benzyl)Morpholine‐2‐Carboxylate]		~65%		32 ± 0.77 µM	71 ± 1 µM	EC50 ([3]; Severe acute respiratory syndrome coronavirus 2, Calu-3): > 32 µM; kinetic solubility ([6]; as restated in Conclusions): 71 µM L^−1
Cl.NC(=O)C1CN(Cc2ccc(NC(=O)Nc3cc(Cl)cc(Cl)c3)cc2C(F)(F)F)CCO1 (stereo not shown) [Compound 72, 4‐(4‐(3‐(3,5‐Dichlorophenyl)Ureido)‐2‐(Trifluoromethyl)Benzyl)Morpholine‐2‐Carboxamide Hydrochloride]		52 ± 5%	> 12 µM	12 ± 0.51 µM	4.7 ± 0.1 µM	
Ethyl 1‐(4‐(3‐(3,5‐Dichlorophenyl)Ureido)‐2‐(Trifluoromethyl)Benzyl)Piperidine‐4‐Carboxylate Hydrochloride [Compound 67]						RA ± SD (residual activity of RdRp) ([2]; at 10 μM concentration of screened compounds): 51 ± 11%; EC50 ([3]; Calu‐3 cells infected with SARS‐CoV‐2, concentration required to reduce viral cytopathic effect by 50%, read-out: EC50): > 9 µM; CC50 [7]: 9 ± 0.38 µM
